Data on 14 molecules can be found in patent US4565816A, “Piperazine derivatives and pharmaceutical composition containing them” (Sandoz Ltd., priority 1982, dated 1986).

Assay [1] relates to spontaneously beating guinea-pig atria. The assay can be described thus: decrease of heart rate of spontaneously beating guinea-pig atria in vitro. The settings on record: Cavia porcellus, read-out: EC25 (concentration decreasing the rate of the spontaneously beating atria by 25%). The protocol:
For example, in guinea-pig atria in vitro [method of R. P. Hof and G. Scholtysik, J. of Cardiovascular Pharmacology 5, 176-183 (1983)] a decrease of the heart rate of spontaneously beating atria is observed at a bath concentration of from about 1 μM to about 100 μM. The concentration decreasing the rate of the spontaneously beating atria by 25% (EC25 values) for some compounds of the present invention and the standard Alinidin are given in the following Table: […]

The next assay has as its system mice. The assay can be described thus: inhibition of locomotion in mice. It is filed as in vivo, mouse (male, OF-1). Conditions: Mus musculus, po, 1 hour after administration, minimum dose at which significant inhibition was observed, read-out: Locomotor inhibition EDmin. On the procedure:
In particular, the compounds of formulae I and VII are useful as neuroleptic agents in the treatment of e.g. psychotic disorders such as schizophrenia, as indicated in standard tests, e.g. by an inhibition of locomotion in mice. In this test groups of 3 male mice (18-24 g, OF-1, Sandoz Basle) received 3.2, 10, 32, 100 and […]. of the test drug. 1 hour after drug administration the mice were observed individually and their locomotion compared with that of control. The locomotion of the animals was observed and the EDmin (the minimum dose at which significant inhibition was observed) determined.

Assay [2] addresses T1, ^3 H-Spiperone binding sites (Bos taurus, UniProt P20288).
T1 construct: fresh calf brain striatal tissue was homogenized; from tissue; host or cells: calf brain striatum, membranes
The assay can be described thus: ^3 H-Spiperone binding (calf brain striatal tissue). The settings on record: for pIC50: calf brain striatal membranes, 0.1 nM ^3 H-Spiperone, 5×10^-7 M Cinanserin, 40 minutes at room temperature, read-out: Receptor binding IC50 ^3 H-Spiperone; for effect in the ^3 H-Spiperone binding test compared with Clozapine: in words, relative to Clozapine. The protocol: The compounds of formulae I and VII bind further on ^3 H-Spiperone binding sites in the brain [modified method of J. Leysen et al., Biochem. Pharmac. […] The test was performed as follows: fresh calf brain striatal tissue was homogenized in the 25 fold volume of Tris buffer (pH 7.4, 50 mM, 120 mM sodium chloride) and centrifuged. The pellets were suspended in the 22 fold volume of Tris buffer, incubated for 15 minutes at 37° C. and centrifuged. The pellets were suspended in the 300 fold volume of Tris buffer. […] After incubation for 40 minutes at room temperature, the assay mixtures were raidly filtered through Whatman GF/B filter, the filters washed twice with 5 ml of ice cold Tris buffer and scintillation-counted.

In another assay the target is α1-receptors. The assay can be described thus: ^3 H-Prazosin binding assay for α1-receptors (calf brain cortex). Conditions: calf brain cortex membranes, 0.3 nM ^3 H-Prazosin, pH 7.7, 40 min room temperature; read-out: IC50, inhibition of specific ^3 H-Prazosin binding. The protocol: The compounds of formulae I and VII are furthermore useful as anti-hypertensive agents, as indicated in standard tests, for example in the ^3 H-Prazosin binding assay for α1 -receptors [modified method of Greengrass P., et al., Eur. J. Pharmac. 55, 323-326 (1979)]. The test was performed as follows:
Fresh calf brain cortex tissue is homogenized in a 20 fold volume of Tris-HCl buffer (50 mM, pH 7.7), using a Polytron PT 20, and centrifuged at 30'000 xg for 25 min. The pellets are resuspended in a 13 fold volume of the same buffer, incubated for 15 min at 37° C., and recentrifuged at 50'000 xg for 11 min. The pellets of this centrifugation are frozen at -20° C. and resuspended in a 60 fold volume of the same buffer as above before use for the binding experiment. The composition of the assay mixtures (total volume=2 ml) is as follows: 50 mM Tris-HCl pH 7.7, membranes corresponding to 30 mg of original tissue weight, and 0.3 nM ^3 H-Prazosin. The assays for the definition of nonspecific binding additionally contain phentolamine at a concentration of 10 μM. To assess the potency of drugs in inhibiting specific ^3 H-Prazosin binding (difference between total and nonspecific binding), the test compounds are added to give 5 to 9 different concentrations between 1 nM and 10 μM, each in duplicate. After incubation for 40 min at room temperature, the assay mixtures are rapidly filtered through Whatman GF/B filters and washed twice with 5 ml of ice cold Tris buffer. The radioactivity of the filters is estimated by scintillation counting.

In another assay the test system is female normotonic rats. The assay can be described thus: blood pressure / heart rate in anaesthetized normotonic rats. In kind it is in vivo, rat (female, Sprague-Dawley). Conditions: Rattus norvegicus, iv; urethane-anaesthetized rats, cumulative i.v. doses 3 to 1443 μg/kg, interpolated; read-out: ED75 (dose required to reduce the blood pressure on the heart rate to 75% of pretreatment values). On the procedure:
In another test female normotonic rats (200-350 g, Sprague-Dawley, Suddeutsche Tierfarm, Tuttlingen, FRG) were anaesthetized with urethane (1.5-1.75 g/kg i.p. in 2 portions) and a tracheal cannula was inserted. Blood pressure and heart rate were recorded from the carotid artery by conventional methods. Test drug were administered by the jugular or the femoral vein. Body temperature was maintained at 37° C. by means of a temperature regulator (Alfos MK-4) triggered by a thermistor on the animal. After adaptation, increasing doses of the test drug were injected i.v. to give the following cumulative doses: 3, 13, 43, 143, […] and 1443 μg/kg. ED 75% is the dose required to reduce the blood pressure on the heart rate to 75% of pretreatment values. It was obtained through interpolation. The ED75 of the Example 4 compound is 6 μg, of Example 5s compound 3 μg, of Example 8 g 4 μg and of Guanfacine 57 μg.

pIC50: −log10 of the molar value. Some results are limits rather than exact numbers.

T1 sequence (P20288 whole entry): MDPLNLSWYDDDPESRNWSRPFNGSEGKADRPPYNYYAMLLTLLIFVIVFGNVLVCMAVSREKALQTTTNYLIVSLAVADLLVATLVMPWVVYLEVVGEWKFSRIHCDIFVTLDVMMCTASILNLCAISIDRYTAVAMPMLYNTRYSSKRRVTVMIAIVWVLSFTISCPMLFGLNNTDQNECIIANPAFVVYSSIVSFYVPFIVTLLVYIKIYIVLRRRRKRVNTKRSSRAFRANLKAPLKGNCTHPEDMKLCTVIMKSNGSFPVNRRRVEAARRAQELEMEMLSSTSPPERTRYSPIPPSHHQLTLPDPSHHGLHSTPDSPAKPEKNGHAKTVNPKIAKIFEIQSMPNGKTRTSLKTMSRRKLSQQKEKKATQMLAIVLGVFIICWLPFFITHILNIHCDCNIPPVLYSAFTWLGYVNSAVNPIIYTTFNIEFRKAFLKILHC

As for `C=CCN(C1=NCCN1)c1c(Cl)cccc1Cl` [Alinidin, reference compound], the EC25 in assay [1] is 6.5 µM.

In the case of `CN1CCN(C2=Nc3cc(Cl)ccc3Nc3ccccc32)CC1` [Clozapine, reference compound], the minimal effective dose in the assay with mice came out at 3.2 mg/kg.

As a reminder, the pIC50 is −log10 of the IC50, conventionally taken in molar units. For the molecule `O=C(CCCN1CCN(c2ccc3[nH]cnc3n2)CC1)c1ccc(F)cc1` [Example 1, 1-(4-Fluorophenyl)-4-[4-(1H-imidazo[4,5-b]pyridin-5-yl)-1-piperazinyl]-1-butanone], the minimal effective dose in the assay with mice was found to be 1 mg/kg. In assay [2], the negative logarithm of the IC50 (pIC50) is 6.51 and the “effect in the ^3 H-Spiperone binding test compared with Clozapine” value was “stronger effects”. In addition, the EC25 in assay [1] came to 7.8 µM.

Consider `Cc1nc2ccc(N3CCN(CCCC(=O)c4ccc(F)cc4)CC3)nc2n1C` [Example 3d], for which the pIC50 on α1-receptors is 8.66.

With `CCc1nc2ccc(N3CCN(CCCC(=O)c4ccc(F)cc4)CC3)nc2[nH]1` [Example 3i], the minimal effective dose with mice worked out at 3.2 mg/kg. Also, in assay [2], the negative logarithm of the IC50 (pIC50) was 6.61 and the “effect in the ^3 H-Spiperone binding test compared with Clozapine” value is on record as “stronger effects”.

For the molecule `O=C(CCCN1CCN(c2cc3[nH]cnc3cn2)CC1)c1ccc(F)cc1` [Example 3r], the minimal effective dose in the assay with mice is not above 3.2 mg/kg. Moreover, the pIC50 in assay [2] is 6.36.

As to `CC(=O)Nc1cnc(N2CCN(CCCC(=O)c3ccc(F)cc3)CC2)cc1NC(C)=O` [Example 4, 4-[4-(4,5-Diacetylamino-2-pyridinyl)-1-piperazinyl]-1-(4-fluorophenyl)-1-butanone], at α1-receptors, the negative-log IC50 (pIC50) was more than 9.00. The ED75 in the assay on female normotonic rats amounted to 6 µg/kg.

Take `CC(=O)Nc1ccc(N2CCN(CCCC(=O)c3ccc(F)cc3)CC2)nc1NC(C)=O` [Example 5c]: in the assay with mice, the minimal effective dose was 1 mg/kg. Moreover, the pIC50 in assay [2] was 5.34.

Consider `CC(=O)Nc1cnc(N2CCN(CCCOc3ccc(F)cc3)CC2)cc1NC(C)=O` [Example 5s], for which the ED75 with female normotonic rats was 3 µg/kg.

Turning to `Cc1nc2ccc(N3CCN(CCCC(=O)c4ccc(F)cc4)CC3)nc2nc1C` [Example 7, 4-[4-(2,3-Dimethyl-pyrido[2,3-b]pyrazin-6-yl)-1-piperazinyl]-1-(4-fluorophenyl)-1-butanone], the minimal effective dose in the assay with mice was found to be 10 mg/kg. Besides, the pIC50 in assay [2] is 6.69.

Turning to `Cc1nc2cnc(N3CCN(CCCC(=O)c4ccc(F)cc4)CC3)cc2nc1C` [Example 8c], the minimal effective dose in the assay on mice amounted to 10 mg/kg. Besides, the pIC50 in assay [2] was 6.92.

Take `O=C(CCCN1CCN(c2cc3nccnc3cn2)CC1)c1ccc(F)cc1` [Example 8d]: the EC25 in assay [1] was determined as 4 µM.

As to `Fc1ccc(OCCCN2CCN(c3cc4nccnc4cn3)CC2)cc1` [Example 8g], the ED75 with female normotonic rats came to 4 µg/kg. The EC25 in assay [1] amounted to 2.15 µM.

As for `N=C(N)NC(=O)Cc1c(Cl)cccc1Cl` [Guanfacine, reference compound], the negative-log IC50 (pIC50) at α1-receptors is 5.43. The ED75 with female normotonic rats stood at 57 µg/kg.
